Key:
[1] = tested on: rats; settings: rats which received curcumin; cited from earlier work
[2] = tested on: C57BL/6J mice; test: Effect in model mice of diet-induced obesity (adipose tissue weights); type: in vivo, mouse
Protocol: C57BL/6J mice (females, 8 weeks old) were freely accessible to a high fat/high sugar diet (Oriental Yeast Co., Ltd., Table 6) for 8 weeks to obtain dietary obese animals. By using a normal diet (Oriental Yeast Co. Ltd., Table 3) as a base feed, two types of feeds, i.e., a diet without any additives and with 0.5% curcumin, were prepared. Next, said mice were divided into 2 groups (7 animals per group), and each group was freely accessible to a diet without any additives (control group) or with 0.5% curcumin (curcumin group) for 4 weeks. After an overnight fasting, mice were subjected to abdominal section under ether anesthesia to collect blood from the abdominal aorta, and then sacrificed. Then, adipose tissues were collected from the tissues around uterus, kidney and mesentery, and their weights were determined. The sum of the weights of periuterine, perirenal and mesenteric adipose tissues was determined as the total amount of intra-abdominal adipose tissue.

[3] = biological target: T1, mouse PPARγ ligand binding domain (Mus musculus, UniProt P37238); test: PPARγ ligand activity: GAL4-mPPARγ LBD chimera luciferase reporter assay in CV-1 cells; type: cell-based; settings: for PPARγ ligand activities (dependence on concentration): 2-10 μg/ml; for PPARγ ligand activity: relative to untreated control (DMSO)=1.00, mean ± SD, n=4
T1 construct: expressed in transfected cells; host or cells: CV-1 cells (African green monkey kidney)
T1 sequence (P37238 174-475 isoform P37238-2): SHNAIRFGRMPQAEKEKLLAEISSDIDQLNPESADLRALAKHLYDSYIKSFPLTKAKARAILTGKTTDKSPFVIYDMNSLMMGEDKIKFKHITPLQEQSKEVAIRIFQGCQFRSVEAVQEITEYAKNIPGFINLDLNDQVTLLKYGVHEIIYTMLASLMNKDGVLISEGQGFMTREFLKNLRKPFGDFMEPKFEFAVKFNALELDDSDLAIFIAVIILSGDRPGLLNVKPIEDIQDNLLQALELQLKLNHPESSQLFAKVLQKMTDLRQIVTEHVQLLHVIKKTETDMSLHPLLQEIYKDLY
Protocol: CV-1 cells (cultured cells derived from male African green monkey kidney) were inoculated into a 96-well culture plate at 6×10^3 cells/well, and incubated at 37° C. for 24 hours under 5% CO2 conditions. As a medium, DMEM (Dulbecco's Modified Eagle Medium, product of GIBCO) containing 10% FBS (fetal bovine serum), 10 ml/L penicillin-streptomycin (5000 IU/ml and 5000 μg/ml, respectively, product of GIBCO), 37 mg/L ascorbic acid (product of Wako Pure Chemical Industries, Ltd.) was used. Cells were washed with OPTI-MEM (product of GIBCO), a serum-free medium, and transfected with pM-mPPARγ and 4×USAg-luc using LIPOFECTAMINE PLUS™ (product of GIBCO), a reagent for transfection of genes using a cationic lipid. […] The 4×UASg-luc is a reporter plasmid incorporated luciferase gene with 4-time-repeated responsive element (UASg) of GAL4 ligated thereto at the upstream end thereof. At approximately 24 hours after the transfection, the medium was replaced by a medium containing each sample (n=4) and cells were incubated for an additional 2 hours. Each sample used was dissolved in dimethyl sulfoxide (DMSO) and DMSO was used as an untreated control sample. […] Cells were washed with Ca, Mg-containing phosphate buffered saline (PBS+) and added with LUCLITE™ (product of Packard), a reagent for determination of luminescence using luciferase. Then, the luminescent intensity by expressed luciferase was determined in a TOPCOUNT™ Microplate Scintillation/Luminescence Counter (product of Packard).
The luminescent intensity was determined in the control group in the same way as in the test groups, but using pM (a plasmid lacking PPARγ ligand binding domain gene) instead of pM-mPPARγ. The ratio (test group/control group) of the average luminescent intensity between the test and control groups (n=4) was determined for each sample, and the relative activity of test sample. against the untreated control sample was determined as the PPARγ ligand activity of the sample.

[4] = tested on: streptozotocin-induced diabetic rats; settings: diet containing 0.5% curcumin; cited from earlier work
[5] = tested on: KK-Ay mice; test: Effect in KK-Ay model mice of type-II diabetes mellitus (body weight, blood glucose); type: in vivo, mouse; settings: for Blood Glucose Level / Mouse Body weight: diet with 0.04% pioglitazone or 0.5% curcumin, mean ± SD
Protocol: KK-Ay mice, a model of genetically obese and type-II diabetic animals, were used to evaluate the effect of curcumin. Pioglitazone, a drug for treating diabetes mellitus, was used as a positive control.
KK-Ay mice (females, 6 weeks old) were divided into 3 groups (5 animals per group). By using a normal diet (product of Oriental Yeast Co. Ltd., Table 3) as a base feed, three types of feeds, i.e., a diet with out any additives, with pioglitazone and with curcumin, were prepared. Mice were placed in an environment in which they were freely accessible to a diet without any additives (control group), with pioglitazone (pioglitazone-added group) or with curcumin (curcumin-added group) for 4 weeks. Pioglitazone used was obtained by grinding Actos tablet 30 (30 mg pioglitazone per tablet, Takeda Chemical Industries Ltd.) in an agate mortar. The ground Actos tablet was then added to the normal diet at a dose of 0.04% pioglitazone. Curcumin was added to the normal diet at a dose of 0.5% curcumin.
During feeding, a small amount of blood was collected from the caudal vein of mice every week to determine blood glucose level using a simple bloodglucose level analyzer GLUTESTACE (Sanwa Kagaku Kenkyusho Co., Ltd.).

[6] = diet-induced obese C57BL/6J mice, 0.5% curcumin diet for 4 weeks, mean ± SD

Row | Compound | PPARγ ligand activities (dependence on concentration) [3] | PPARγ ligand activity ([3]; added concentration 2 μg/ml) | PPARγ ligand activity ([3]; added concentration 5 μg/ml) | PPARγ ligand activity ([3]; added concentration 10 μg/ml) | Blood Glucose Level ([5]; After 1 week) | Mouse Body weight ([5]; After 1 week) | Blood Glucose Level ([5]; After 2 weeks) | Mouse Body weight ([5]; After 2 weeks) | Blood Glucose Level ([5]; After 3 weeks) | Mouse Body weight ([5]; After 3 weeks) | Blood Glucose Level ([5]; After 4 weeks) | Mouse Body weight ([5]; After 4 weeks) | Blood Glucose Level ([5]; Start of feeding) | Mouse Body weight ([5]; Start of feeding) | also measured
1 | COc1cc(/C=C/C(=O)/C=C(O)/C=C/c2ccc(O)c(OC)c2)ccc1O [Compound 1, Curcumin] | concentration-dependent | 2.36 ± 0.94 | 3.67 ± 1.06 | 4.16 ± 1.10 | 191 ± 18 mg/dL | 34.7 ± 1.1 g | 222 ± 46 mg/dL | 39.8 ± 0.7 g | 348 ± 125 mg/dL | 42.8 ± 0.9 g | 344 ± 105 mg/dL | 44.7 ± 1.0 g | 139 ± 7 mg/dL | 25.5 ± 0.7 g | Activity of acyl-CoA oxidase (β-oxidation promotive enzyme) [1]: enhanced; Triglyceride accumulation in the liver [1]: inhibition; Body weight compared with control group [2]: no significant difference; Weights of periuterine, perirenal, mesenteric and intra-abdominal adipose tissues compared with control group [2]: significantly reduced; Adipose tissue per body weight: Mesenteric adipose tissue (c) [2, 6]: 0.39 ± 0.11 % by weight; Adipose tissue per body weight: Perirenal adipose tissue (b) [2, 6]: 0.46 ± 0.15 % by weight; Adipose tissue per body weight: Periuterine adipose tissue (a) [2, 6]: 0.8 ± 0.21 % by weight; Body weight after feeding [2, 6]: 22.9 ± 0.9 g; Adipose tissue per body weight: Intra-abdominal adipose tissue (a + b + c) ([2]; sum of periuterine, perirenal and mesenteric, diet-induced obese C57BL/6J mice, 0.5% curcumin diet for 4 weeks, mean ± SD): 1.65 ± 0.42 % by weight; Cholesterol, triglyceride and phospholipid levels in blood [4]: reduced; Renal lesions associated with diabetes mellitus [4]: amelioration; Elevation of blood glucose level compared with control group ([5]; 4 weeks feeding): suppressed significantly; Mouse body weight change compared with control group ([5]; 4 weeks feeding): without any significant difference
2 | CCc1ccc(CCOc2ccc(CC3SC(=O)NC3=O)cc2)nc1 (stereo not drawn) [Pioglitazone, reference compound] |  |  |  |  | 163 ± 23 mg/dL | 36.7 ± 1.0 g | 182 ± 9 mg/dL | 39.9 ± 1.2 g | 166 ± 18 mg/dL | 42.3 ± 1.2 g | 153 ± 21 mg/dL | 43.8 ± 1.4 g | 151 ± 9 mg/dL | 26.9 ± 1.0 g | 
3 | Bisdemethoxycurcumin [Compound 3] | concentration-dependent | 1.88 ± 0.33 | 3.55 ± 0.38 | 4.08 ± 0.46 |  |  |  |  |  |  |  |  |  |  | 
4 | Demethoxycurcumin [Compound 2] | concentration-dependent | 2.17 ± 0.39 | 4.25 ± 0.77 | 4.41 ± 0.35 |  |  |  |  |  |  |  |  |  |  | 

From US7090874B2, “Ligand for peroxisome proliferator-activated receptor” (Kaneka Corporation, priority 2001, dated 2006)
